Source: patent US8232288B2, “Substituted benzimidazoles, benzothiazoles and benzoxazoles” (Gruenenthal GmbH, priority 2009, dated 2012)

Columns and labels:
[1] = target: T1, human B1R receptor (hB1R) (Homo sapiens, UniProt P46663); experiment: Functional investigation on the bradykinin receptor 1 (B1R), FLIPR Ca2+ assay, hB1R cells; format: cell-based
T1 construct: expressed in transfected cells; host or cells: CHO K1 cells
T1 sequence (P46663 1-353): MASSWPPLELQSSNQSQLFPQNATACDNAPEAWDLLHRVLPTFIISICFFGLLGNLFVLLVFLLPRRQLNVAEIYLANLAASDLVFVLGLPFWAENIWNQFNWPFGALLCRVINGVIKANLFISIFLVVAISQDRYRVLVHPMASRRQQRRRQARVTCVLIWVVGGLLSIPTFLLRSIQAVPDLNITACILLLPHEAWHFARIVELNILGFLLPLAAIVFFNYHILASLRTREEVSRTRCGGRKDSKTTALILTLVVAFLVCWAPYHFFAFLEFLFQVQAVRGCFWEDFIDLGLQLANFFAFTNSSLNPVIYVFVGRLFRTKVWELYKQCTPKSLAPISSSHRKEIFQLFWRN
How it was run: (§1)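 Stably transfected CHO K1 cells expressing human or rat B1R were loaded with Fluo-4, and Ca2+ fluorescence was read on a FLIPR. Compound (10 μM) was added first to measure activation. After 10–20 min, agonist at EC80 was added (Lys-Des-Arg9-bradykinin for hB1R, Des-Arg9-bradykinin for rB1R) to give % inhibition. IC50 values came from concentration series.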

[2] = target: T2, B1R receptor of the rat (rB1R) (Rattus norvegicus, UniProt P97583); experiment: Functional investigation on the bradykinin receptor 1 (B1R), FLIPR Ca2+ assay, rB1R cells; format: cell-based
T2 construct: expressed in transfected cells; host or cells: CHO K1 cells
T2 sequence (P97583 1-337): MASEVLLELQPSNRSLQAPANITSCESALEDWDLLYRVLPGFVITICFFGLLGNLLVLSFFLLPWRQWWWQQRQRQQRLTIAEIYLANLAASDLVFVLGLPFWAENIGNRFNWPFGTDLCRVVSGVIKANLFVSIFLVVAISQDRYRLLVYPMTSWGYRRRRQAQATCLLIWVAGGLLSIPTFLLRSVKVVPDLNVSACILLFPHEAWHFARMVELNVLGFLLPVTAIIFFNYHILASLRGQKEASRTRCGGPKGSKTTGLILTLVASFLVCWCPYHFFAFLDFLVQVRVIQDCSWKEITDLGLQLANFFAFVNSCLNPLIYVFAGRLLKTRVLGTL
How it was run: as §1

SMILES	inhibition at 10 µM [1] [%]	inhibition at 10 µM [2] [%]
COc1cc(C)c(S(=O)(=O)N(C)C(C)c2nc3cccc(C(=O)N4CCC5(CC4)CCN(C(=O)c4cc(C)nn4C(C)(C)C)CC5)c3[nH]2)c(C)c1 (stereo not shown) [I_CC-55, N-[1-[7-[9-(2-tert-Butyl-5-methyl-2H-pyrazole-3-carbonyl)-3,9-diazaspiro[5.5]undecane-3-carbonyl]-1H-benzoimidazol-2-yl]-ethyl]-4-methoxy-N,2,6-trimethyl-benzenesulfonic acid amide]	71	89
COc1cc(C)c(S(=O)(=O)N(C)C(C)c2nc3cccc(C(=O)N4CCC5(CC4)CCN(S(=O)(=O)c4ccc(Cl)s4)CC5)c3[nH]2)c(C)c1 (stereo not shown) [I_CC-56, N-[1-[7-[9-[(5-Chloro-thiophen-2-yl)sulfonyl]-3,9-diazaspiro[5.5]undecane-3-carbonyl]-1H-benzoimidazol-2-yl]-ethyl]-4-methoxy-N,2,6-trimethyl-benzenesulfonic acid amide]	15	101
COc1cc(C)c(S(=O)(=O)N(C)C(C)c2nc3cccc(C(=O)N4CCC5(CC4)CCN(S(=O)(=O)c4ccc(F)cc4F)CC5)c3[nH]2)c(C)c1 (stereo not shown) [I_CC-57, N-[1-[7-[9-[(2,4-Difluoro-phenyl)sulfonyl]-3,9-diazaspiro[5.5]undecane-3-carbonyl]-1H-benzoimidazol-2-yl]-ethyl]-4-methoxy-N,2,6-trimethyl-benzenesulfonic acid amide]	22	103
COc1cc(C)c(S(=O)(=O)N(C)C(C)c2nc3cccc(C(=O)N4CCC5(CC4)CCN(S(=O)(=O)c4ccc(F)c(C#N)c4)CC5)c3[nH]2)c(C)c1 (stereo not shown) [I_CC-58, N-[1-[7-[9-[(3-Cyano-4-fluoro-phenyl)sulfonyl]-3,9-diazaspiro[5.5]undecane-3-carbonyl]-1H-benzoimidazol-2-yl]-ethyl]-4-methoxy-N,2,6-trimethyl-benzenesulfonic acid amide]	18	101
COc1cc(C)c(S(=O)(=O)N(C)C(C)c2nc3cccc(C(=O)N4CCC5(CC4)CCN(S(=O)(=O)c4ccccc4C#N)CC5)c3[nH]2)c(C)c1 (stereo not shown) [I_CC-59, N-[1-[7-[9-[(2-Cyano-phenyl)sulfonyl]-3,9-diazaspiro[5.5]undecane-3-carbonyl]-1H-benzoimidazol-2-yl]-ethyl]-4-methoxy-N,2,6-trimethyl-benzenesulfonic acid amide]	20	103
